Key:
Test in all cases: KINOMEscan competition binding
Conditions in all cases: compound 10.0 µM
[1] = molecular target: LIMK1 (human) (UniProt P53667)
[2] = molecular target: TAOK1 (human) (UniProt Q7L7X3)
[3] = molecular target: AXL (human) (UniProt P30530)
[4] = molecular target: YES1 (human) (UniProt P07947)
[5] = molecular target: INSR (human) (UniProt P06213)
[6] = molecular target: ROS1 (human) (UniProt P08922)
[7] = molecular target: FES (human) (UniProt P07332)
[8] = molecular target: DSTYK (human) (UniProt Q6XUX3)
Sequence of DSTYK (human) (Q6XUX3 whole entry, looked up): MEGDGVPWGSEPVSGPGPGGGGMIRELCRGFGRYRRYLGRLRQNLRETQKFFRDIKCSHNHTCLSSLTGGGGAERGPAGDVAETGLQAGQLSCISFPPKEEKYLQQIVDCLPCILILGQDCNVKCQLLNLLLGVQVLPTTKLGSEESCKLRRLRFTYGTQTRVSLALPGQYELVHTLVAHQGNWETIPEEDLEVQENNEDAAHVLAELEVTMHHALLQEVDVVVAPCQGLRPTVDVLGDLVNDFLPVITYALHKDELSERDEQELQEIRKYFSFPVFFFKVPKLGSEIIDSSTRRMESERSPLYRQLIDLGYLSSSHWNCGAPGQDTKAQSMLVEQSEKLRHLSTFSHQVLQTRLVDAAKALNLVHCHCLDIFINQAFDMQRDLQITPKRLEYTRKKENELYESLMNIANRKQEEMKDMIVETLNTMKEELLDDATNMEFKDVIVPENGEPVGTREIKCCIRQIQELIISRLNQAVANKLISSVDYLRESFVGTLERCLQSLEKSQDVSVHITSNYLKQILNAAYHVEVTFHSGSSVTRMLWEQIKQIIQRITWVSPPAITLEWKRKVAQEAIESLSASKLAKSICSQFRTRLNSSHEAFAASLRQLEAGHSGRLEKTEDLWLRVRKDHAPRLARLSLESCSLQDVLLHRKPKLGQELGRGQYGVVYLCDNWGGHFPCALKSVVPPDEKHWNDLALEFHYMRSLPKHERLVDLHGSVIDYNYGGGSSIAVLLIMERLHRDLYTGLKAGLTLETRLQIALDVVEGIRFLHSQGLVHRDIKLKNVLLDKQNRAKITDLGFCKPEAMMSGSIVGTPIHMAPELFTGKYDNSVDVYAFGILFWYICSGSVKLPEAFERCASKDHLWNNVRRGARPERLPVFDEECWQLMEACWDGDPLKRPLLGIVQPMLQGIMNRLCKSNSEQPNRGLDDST

[9] = molecular target: MAP4K3 (human) (UniProt Q8IVH8)
[10] = molecular target: NEK1 (human) (UniProt Q96PY6)
[11] = molecular target: MST1R (human) (UniProt Q04912)
[12] = molecular target: PIM1 (human) (UniProt P11309)
[13] = molecular target: PAK7 (human) (UniProt Q9P286)
[14] = molecular target: WEE2 (human) (UniProt P0C1S8)
[15] = molecular target: CLK3 (human) (UniProt P49761)
[16] = molecular target: TRPM6 (human) (UniProt Q9BX84)
Sequence of TRPM6 (human) (Q9BX84 whole entry, looked up): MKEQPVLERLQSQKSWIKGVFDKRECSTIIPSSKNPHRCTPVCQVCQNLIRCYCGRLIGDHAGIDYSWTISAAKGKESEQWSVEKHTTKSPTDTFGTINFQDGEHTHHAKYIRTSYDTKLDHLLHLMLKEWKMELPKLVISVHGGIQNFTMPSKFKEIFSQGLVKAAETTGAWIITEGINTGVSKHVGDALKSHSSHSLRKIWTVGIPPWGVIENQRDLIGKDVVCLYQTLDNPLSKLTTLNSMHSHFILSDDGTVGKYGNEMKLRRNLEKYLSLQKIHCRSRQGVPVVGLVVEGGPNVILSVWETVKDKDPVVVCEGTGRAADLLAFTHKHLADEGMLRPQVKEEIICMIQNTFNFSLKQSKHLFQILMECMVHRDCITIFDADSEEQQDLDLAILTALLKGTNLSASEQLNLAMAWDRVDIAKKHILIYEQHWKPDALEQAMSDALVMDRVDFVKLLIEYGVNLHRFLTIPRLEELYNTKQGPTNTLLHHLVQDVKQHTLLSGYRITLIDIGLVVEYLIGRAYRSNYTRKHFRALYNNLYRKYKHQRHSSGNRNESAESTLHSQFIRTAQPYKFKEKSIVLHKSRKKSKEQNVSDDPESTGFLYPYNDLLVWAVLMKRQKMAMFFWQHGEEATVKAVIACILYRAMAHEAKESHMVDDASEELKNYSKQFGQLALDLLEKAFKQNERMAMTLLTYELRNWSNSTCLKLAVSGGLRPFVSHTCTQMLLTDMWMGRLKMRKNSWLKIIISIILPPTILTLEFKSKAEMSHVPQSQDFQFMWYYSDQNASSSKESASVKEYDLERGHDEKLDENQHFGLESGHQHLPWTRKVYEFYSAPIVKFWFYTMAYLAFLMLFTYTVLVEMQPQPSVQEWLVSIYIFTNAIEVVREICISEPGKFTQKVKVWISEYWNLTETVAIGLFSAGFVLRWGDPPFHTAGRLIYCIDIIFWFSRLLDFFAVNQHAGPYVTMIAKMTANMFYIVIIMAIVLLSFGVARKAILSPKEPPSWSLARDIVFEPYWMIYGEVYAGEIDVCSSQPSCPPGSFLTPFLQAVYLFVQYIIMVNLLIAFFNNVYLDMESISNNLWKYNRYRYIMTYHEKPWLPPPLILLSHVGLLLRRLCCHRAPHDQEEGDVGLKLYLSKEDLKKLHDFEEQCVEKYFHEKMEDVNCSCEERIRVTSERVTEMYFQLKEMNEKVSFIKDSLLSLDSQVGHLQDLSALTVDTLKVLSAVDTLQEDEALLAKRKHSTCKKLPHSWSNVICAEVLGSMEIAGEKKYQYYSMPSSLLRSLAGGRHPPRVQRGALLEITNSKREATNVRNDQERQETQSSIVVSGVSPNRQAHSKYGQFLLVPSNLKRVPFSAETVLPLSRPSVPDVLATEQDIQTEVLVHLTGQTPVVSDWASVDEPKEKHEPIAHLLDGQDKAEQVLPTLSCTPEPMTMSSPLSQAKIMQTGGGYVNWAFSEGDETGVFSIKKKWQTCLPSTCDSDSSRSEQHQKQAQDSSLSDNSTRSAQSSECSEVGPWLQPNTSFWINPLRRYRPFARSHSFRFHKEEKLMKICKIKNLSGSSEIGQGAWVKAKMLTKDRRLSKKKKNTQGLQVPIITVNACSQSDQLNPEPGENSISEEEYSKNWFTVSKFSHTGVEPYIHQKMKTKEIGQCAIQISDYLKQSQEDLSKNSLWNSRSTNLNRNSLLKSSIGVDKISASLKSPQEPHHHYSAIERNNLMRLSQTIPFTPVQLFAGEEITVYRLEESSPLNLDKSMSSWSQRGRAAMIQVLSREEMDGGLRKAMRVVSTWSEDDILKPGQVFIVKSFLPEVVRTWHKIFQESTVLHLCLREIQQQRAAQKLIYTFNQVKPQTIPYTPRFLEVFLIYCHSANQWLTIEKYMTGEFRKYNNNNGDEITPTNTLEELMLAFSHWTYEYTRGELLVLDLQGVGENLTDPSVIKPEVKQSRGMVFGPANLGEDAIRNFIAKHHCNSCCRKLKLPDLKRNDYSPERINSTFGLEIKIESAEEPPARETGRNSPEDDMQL

[17] = molecular target: GSK3B (human) (UniProt P49841)
[18] = molecular target: STK17A (human) (UniProt Q9UEE5)
[19] = molecular target: PIK3CA (human) (UniProt P42336)
[20] = molecular target: PTK6 (human) (UniProt Q13882)
[21] = molecular target: STK3 (human) (UniProt Q13188)
[22] = molecular target: GRK1 (human) (UniProt Q15835)
[23] = molecular target: MST4 (human) (UniProt Q9P289)
[24] = molecular target: SGK110 (human) (UniProt P0C264)
[25] = molecular target: MAPK4 (human) (UniProt P31152)
[26] = molecular target: ACVR1 (human) (UniProt Q04771)
[27] = molecular target: JAK2 JH1 catalytic (human) (UniProt O60674)
[28] = molecular target: ADCK3 (human) (UniProt Q8NI60)
[29] = molecular target: PI4KB (human) (UniProt Q9UBF8)
[30] = molecular target: MAPK6 (human) (UniProt Q16659)
[31] = molecular target: MELK (human) (UniProt Q14680)
Sequence of MELK (human) (Q14680 whole entry, looked up): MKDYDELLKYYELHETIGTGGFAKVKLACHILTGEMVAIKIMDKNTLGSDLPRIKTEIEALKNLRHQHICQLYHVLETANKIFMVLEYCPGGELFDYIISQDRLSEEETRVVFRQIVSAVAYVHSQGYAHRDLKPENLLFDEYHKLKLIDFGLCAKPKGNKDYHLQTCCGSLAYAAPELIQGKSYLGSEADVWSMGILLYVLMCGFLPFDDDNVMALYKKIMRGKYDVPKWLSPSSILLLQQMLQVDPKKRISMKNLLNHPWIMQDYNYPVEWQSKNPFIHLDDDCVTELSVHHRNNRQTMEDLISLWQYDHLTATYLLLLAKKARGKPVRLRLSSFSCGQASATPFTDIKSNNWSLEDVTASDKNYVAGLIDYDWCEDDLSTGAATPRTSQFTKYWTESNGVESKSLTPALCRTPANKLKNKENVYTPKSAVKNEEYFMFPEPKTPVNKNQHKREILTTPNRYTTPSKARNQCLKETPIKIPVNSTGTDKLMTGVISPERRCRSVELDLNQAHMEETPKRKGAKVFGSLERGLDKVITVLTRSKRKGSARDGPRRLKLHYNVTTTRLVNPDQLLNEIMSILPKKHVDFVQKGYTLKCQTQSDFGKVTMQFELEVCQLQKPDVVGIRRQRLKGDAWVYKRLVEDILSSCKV

[32] = molecular target: DYRK1A (human) (UniProt Q13627)
[33] = molecular target: TNK2 (human) (UniProt Q07912)
[34] = molecular target: MAPK7 (human) (UniProt Q13164)
[35] = molecular target: EPHA3 (human) (UniProt P29320)
[36] = molecular target: ROCK1 (human) (UniProt Q13464)
[37] = molecular target: MAK (human) (UniProt P20794)
[38] = molecular target: TTK (human) (UniProt P33981)
[39] = molecular target: MYLK4 (human) (UniProt Q86YV6)
[40] = molecular target: STK38 (human) (UniProt Q15208)
[41] = molecular target: ICK (human) (UniProt Q9UPZ9)

Sequence of INSR (human) (P06213 whole entry, looked up): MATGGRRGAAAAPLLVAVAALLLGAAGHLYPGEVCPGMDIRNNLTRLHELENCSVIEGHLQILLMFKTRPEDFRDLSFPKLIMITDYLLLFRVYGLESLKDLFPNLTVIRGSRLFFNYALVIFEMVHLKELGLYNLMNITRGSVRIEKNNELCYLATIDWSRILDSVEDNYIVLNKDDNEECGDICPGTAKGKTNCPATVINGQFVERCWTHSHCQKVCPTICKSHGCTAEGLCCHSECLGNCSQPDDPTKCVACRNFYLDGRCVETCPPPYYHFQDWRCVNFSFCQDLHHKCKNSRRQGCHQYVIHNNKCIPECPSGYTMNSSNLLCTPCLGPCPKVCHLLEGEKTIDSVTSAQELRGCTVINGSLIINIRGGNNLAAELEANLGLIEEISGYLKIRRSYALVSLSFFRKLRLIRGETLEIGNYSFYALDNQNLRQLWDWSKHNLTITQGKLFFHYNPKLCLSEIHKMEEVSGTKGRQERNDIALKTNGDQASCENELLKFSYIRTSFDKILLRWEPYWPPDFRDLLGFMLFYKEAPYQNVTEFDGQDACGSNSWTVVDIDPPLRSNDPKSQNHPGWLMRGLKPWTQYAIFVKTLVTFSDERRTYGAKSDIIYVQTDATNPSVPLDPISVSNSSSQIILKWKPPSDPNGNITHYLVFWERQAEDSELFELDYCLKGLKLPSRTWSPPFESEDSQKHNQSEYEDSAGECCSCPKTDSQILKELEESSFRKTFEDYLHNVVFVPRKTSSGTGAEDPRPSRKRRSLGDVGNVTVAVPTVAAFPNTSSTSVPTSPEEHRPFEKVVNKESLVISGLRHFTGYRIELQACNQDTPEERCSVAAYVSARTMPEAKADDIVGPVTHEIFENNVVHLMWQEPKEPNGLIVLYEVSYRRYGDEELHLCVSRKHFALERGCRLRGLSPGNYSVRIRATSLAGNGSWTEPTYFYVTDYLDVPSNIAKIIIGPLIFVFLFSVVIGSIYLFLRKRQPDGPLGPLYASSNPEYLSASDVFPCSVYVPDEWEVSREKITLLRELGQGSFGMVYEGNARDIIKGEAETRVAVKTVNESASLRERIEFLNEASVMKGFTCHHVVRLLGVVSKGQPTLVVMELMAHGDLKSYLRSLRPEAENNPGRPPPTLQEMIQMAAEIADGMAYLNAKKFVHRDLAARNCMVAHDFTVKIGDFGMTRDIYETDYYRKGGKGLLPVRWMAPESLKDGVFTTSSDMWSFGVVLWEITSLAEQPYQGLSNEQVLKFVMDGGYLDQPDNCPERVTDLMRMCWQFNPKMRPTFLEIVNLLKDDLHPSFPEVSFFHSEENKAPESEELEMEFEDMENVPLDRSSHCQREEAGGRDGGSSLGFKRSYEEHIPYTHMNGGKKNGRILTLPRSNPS

Q: What does the source list for `N#C/C(=C1/Nc2ccccc2S1)c1ccnc(NCCc2cccnc2)n1`?
A: kinase still bound, per cent of control [1]: 78%; kinase still bound, per cent of control [2]: 38%; kinase still bound, per cent of control [3]: 100%; kinase still bound, per cent of control [4]: 81%; kinase still bound, per cent of control [5]: 92%; kinase still bound, per cent of control [6]: 100%; kinase still bound, per cent of control [7]: 100%; kinase still bound, per cent of control [8]: 51%; kinase still bound, per cent of control [9]: 80%; kinase still bound, per cent of control [10]: 57%; kinase still bound, per cent of control [11]: 100%; kinase still bound, per cent of control [12]: 4.4%; kinase still bound, per cent of control [13]: 76%; kinase still bound, per cent of control [14]: 100%; kinase still bound, per cent of control [15]: 76%; kinase still bound, per cent of control [16]: 100%; kinase still bound, per cent of control [17]: 0.15%; kinase still bound, per cent of control [18]: 100%; kinase still bound, per cent of control [19]: 100%; kinase still bound, per cent of control [20]: 59%; kinase still bound, per cent of control [21]: 59%; kinase still bound, per cent of control [22]: 100%; kinase still bound, per cent of control [23]: 100%; kinase still bound, per cent of control [24]: 100%; kinase still bound, per cent of control [25]: 96%; kinase still bound, per cent of control [26]: 86%; kinase still bound, per cent of control [27]: 45%; kinase still bound, per cent of control [28]: 91%; kinase still bound, per cent of control [29]: 20%; kinase still bound, per cent of control [30]: 26%; kinase still bound, per cent of control [31]: 100%; kinase still bound, per cent of control [32]: 0%; kinase still bound, per cent of control [33]: 91%; kinase still bound, per cent of control [34]: 100%; kinase still bound, per cent of control [35]: 73%; kinase still bound, per cent of control [36]: 37%; kinase still bound, per cent of control [37]: 100%; kinase still bound, per cent of control [38]: 62%; kinase still bound, per cent of control [39]: 16%; kinase still bound, per cent of control [40]: 91%; kinase still bound, per cent of control [41]: 64%

Q: Which kinase still bound, per cent of control [1] does the source give for `CCCS(=O)(=O)Nc1ccc(F)c(C(=O)c2c[nH]c3ncc(Cl)cc23)c1F` here?
A: 46%

Q: And the kinase still bound, per cent of control [2]?
A: 52%

Q: And the kinase still bound, per cent of control [3]?
A: 40%

Q: What about the kinase still bound, per cent of control [4] of the same compound?
A: 18%

Q: And the kinase still bound, per cent of control [5]?
A: 83%

Q: And the kinase still bound, per cent of control [6]?
A: 34%

Q: And the kinase still bound, per cent of control [8]?
A: 54%

Q: What about the kinase still bound, per cent of control [9] of the same compound?
A: 91%

Q: And the kinase still bound, per cent of control [10]?
A: 72%

Q: What about the kinase still bound, per cent of control [11] of the same compound?
A: 100%

Q: And the kinase still bound, per cent of control [12]?
A: 77%

Q: And the kinase still bound, per cent of control [13]?
A: 44%

Q: And the kinase still bound, per cent of control [14]?
A: 100%

Q: And the kinase still bound, per cent of control [15]?
A: 80%

Q: What about the kinase still bound, per cent of control [16] of the same compound?
A: 99%

Q: And the kinase still bound, per cent of control [17]?
A: 100%

Q: What about the kinase still bound, per cent of control [18] of the same compound?
A: 44%

Q: And the kinase still bound, per cent of control [19]?
A: 82%

Q: What about the kinase still bound, per cent of control [20] of the same compound?
A: 0.5%

Q: And the kinase still bound, per cent of control [21]?
A: 21%

Q: And the kinase still bound, per cent of control [22]?
A: 100%

Q: And the kinase still bound, per cent of control [23]?
A: 96%

Q: And the kinase still bound, per cent of control [24]?
A: 100%

Q: What about the kinase still bound, per cent of control [25] of the same compound?
A: 100%

Q: What about the kinase still bound, per cent of control [26] of the same compound?
A: 100%

Q: What about the kinase still bound, per cent of control [27] of the same compound?
A: 44%

Q: What about the kinase still bound, per cent of control [28] of the same compound?
A: 92%

Q: What about the kinase still bound, per cent of control [29] of the same compound?
A: 25%

Q: What about the kinase still bound, per cent of control [30] of the same compound?
A: 100%

Q: What about the kinase still bound, per cent of control [31] of the same compound?
A: 76%

Q: And the kinase still bound, per cent of control [32]?
A: 76%

Q: What about the kinase still bound, per cent of control [33] of the same compound?
A: 8.2%

Q: What about the kinase still bound, per cent of control [34] of the same compound?
A: 65%

Q: What about the kinase still bound, per cent of control [35] of the same compound?
A: 65%

Q: And the kinase still bound, per cent of control [36]?
A: 77%

Q: What about the kinase still bound, per cent of control [37] of the same compound?
A: 71%

Q: And the kinase still bound, per cent of control [38]?
A: 60%

Q: And the kinase still bound, per cent of control [39]?
A: 15%

Q: And the kinase still bound, per cent of control [40]?
A: 78%

Q: And the kinase still bound, per cent of control [41]?
A: 63%

Q: Which kinase still bound, per cent of control [1] does the source give for `CNC(=O)Nc1ccc(-c2nc(N3CC4CCC(C3)O4)c3cnn(C4CCC5(CC4)OCCO5)c3n2)cc1` here?
A: 95%

Q: And the kinase still bound, per cent of control [2]?
A: 100%

Q: What about the kinase still bound, per cent of control [3] of the same compound?
A: 88%

Q: What about the kinase still bound, per cent of control [4] of the same compound?
A: 97%

Q: And the kinase still bound, per cent of control [5]?
A: 84%

Q: And the kinase still bound, per cent of control [6]?
A: 81%

Q: And the kinase still bound, per cent of control [7]?
A: 100%

Q: What about the kinase still bound, per cent of control [8] of the same compound?
A: 100%

Q: What about the kinase still bound, per cent of control [9] of the same compound?
A: 94%

Q: And the kinase still bound, per cent of control [10]?
A: 100%

Q: What about the kinase still bound, per cent of control [11] of the same compound?
A: 100%

Q: What about the kinase still bound, per cent of control [12] of the same compound?
A: 100%

Q: What about the kinase still bound, per cent of control [13] of the same compound?
A: 100%

Q: And the kinase still bound, per cent of control [14]?
A: 100%

Q: And the kinase still bound, per cent of control [15]?
A: 31%

Q: And the kinase still bound, per cent of control [16]?
A: 100%

Q: What about the kinase still bound, per cent of control [17] of the same compound?
A: 69%

Q: What about the kinase still bound, per cent of control [18] of the same compound?
A: 100%

Q: What about the kinase still bound, per cent of control [19] of the same compound?
A: 16%

Q: What about the kinase still bound, per cent of control [20] of the same compound?
A: 55%

Q: What about the kinase still bound, per cent of control [21] of the same compound?
A: 97%

Q: What about the kinase still bound, per cent of control [22] of the same compound?
A: 100%

Q: And the kinase still bound, per cent of control [23]?
A: 70%

Q: What about the kinase still bound, per cent of control [24] of the same compound?
A: 96%

Q: And the kinase still bound, per cent of control [25]?
A: 100%

Q: What about the kinase still bound, per cent of control [26] of the same compound?
A: 90%

Q: What about the kinase still bound, per cent of control [27] of the same compound?
A: 100%

Q: And the kinase still bound, per cent of control [28]?
A: 86%

Q: What about the kinase still bound, per cent of control [29] of the same compound?
A: 100%

Q: What about the kinase still bound, per cent of control [30] of the same compound?
A: 85%

Q: What about the kinase still bound, per cent of control [31] of the same compound?
A: 92%

Q: And the kinase still bound, per cent of control [32]?
A: 100%

Q: What about the kinase still bound, per cent of control [33] of the same compound?
A: 84%

Q: And the kinase still bound, per cent of control [34]?
A: 100%

Q: And the kinase still bound, per cent of control [35]?
A: 100%

Q: And the kinase still bound, per cent of control [36]?
A: 100%

Q: And the kinase still bound, per cent of control [37]?
A: 100%

Q: What about the kinase still bound, per cent of control [38] of the same compound?
A: 100%

Q: And the kinase still bound, per cent of control [39]?
A: 100%

Q: What about the kinase still bound, per cent of control [40] of the same compound?
A: 100%

Q: What about the kinase still bound, per cent of control [41] of the same compound?
A: 87%
